We go through three compounds from US5120538A, “Combinations of compounds isolated from curcuma spp as anti-inflammatory agents” (PT Darya-Varia Laboratoria, priority 1990, dated 1992).

Molecules are shown by their SMILES.

The test system of assay [1] is Oedema of right-hind paw induced by injection of 1% carrageenan solution. The assay is described as follows: Carrageenan-induced paw oedema inhibition in rats. It is filed as in vivo, Male inbred albino rats, Wistar derived LMR strain. The conditions noted are these: rat, 0.01 g one hour before induction, controls safflower oil. How it is done: Male inbred albino rats of the Wistar derived LMR strain, weighing between 140 and 160 grams are used. Each treatment group consists of ten rats. The rats are fasted for one night and weighed the next morning. Oedema is induced in the right-hind paw of each rat by means of an injection of 1% carrageenan solution. Before the injection and each hour after injection, the volume of the right-hind paw is measured. Measurement of the volume is done by dipping the rats paw into a liquid up to a predetermined mark and measuring or weighing the displaced liquid. The apparatus for measuring volume is calibrated against objects with known volumes. Animals in the treatment groups are administered the drug orally once an hour for three hours before induction of oedema. Animals in the control groups are administered either safflower oil or polyethyleneglycol (PEG) one hour before induction. Piroxicam, a known anti-inflammatory agent used as a positive control, is administered one hour before induction.

Assay [2] deals with inflammation. The conditions noted are these: cited from earlier work.
Assay [3] concerns cholesterol levels. The conditions noted are these: rats; cited from earlier work.
The subject of assay [4] is bacteria. The conditions noted are these: in vitro; cited from earlier work.
For assay [5], the system named is choleretic effect of curcumin. The settings on record: cited from earlier work.

On to `CN1C(C(=O)Nc2ccccn2)=C(O)c2ccccc2S1(=O)=O` [Piroxicam], for which the “% Oedema Inhibition over 6 Hr. Period After Induction, 1 hr.” value in assay [1] (1 hr. after induction) turned out to be 25.9%. In addition, the “% Oedema Inhibition over 6 Hr. Period After Induction, 2 hr.” value in assay [1] (2 hr. after induction) came to 49.0%. The “% Oedema Inhibition over 6 Hr. Period After Induction, 3 hr.” value in assay [1] (3 hr. after induction) came to 52.6%. Moreover, the “% Oedema Inhibition over 6 Hr. Period After Induction, 4 hr.” value in assay [1] (4 hr. after induction) came out at 43.4%. For the same compound, the “% Oedema Inhibition over 6 Hr. Period After Induction, 5 hr.” value in assay [1] (5 hr. after induction) turned out to be 41.4%. The “% Oedema Inhibition over 6 Hr. Period After Induction, 6 hr.” value in assay [1] (6 hr. after induction) was determined as 36.5%.
Turning to `COc1cc(/C=C/C(=O)CC(=O)/C=C/c2ccc(O)c(OC)c2)ccc1O` [Curcumin, diferuloylmethane], the anti-inflammatory effects entry in assay [2] was “anti-inflammatory effects”. In addition, the cholesterol levels entry in assay [3] is reported as “lower cholesterol levels”. Besides, the antibacterial activity entry in assay [4] was “antibacterial activity”.
On to `O=C(C=Cc1ccc(O)cc1)CC(=O)C=Cc1ccc(O)cc1` [Bis-desmethoxycurcumin, dihydroxydicinnamoyl methane], for which, in assay [5], the “choleretic effect of curcumin” value is “inhibit the choleretic effect of curcumin”.
